Measurements as given in US6353019B1, “Macrocyclic lactones, compositions, and methods of use” (United States of America as represented by the Department …, priority 1997, dated 2002).

Experiments:
Format in all cases: cell-based, human
Conditions in all cases: averaged, quadruplicate testing, 48 h, SRB
CCRF-CEM = assay: NCI 60 cell-line screen, CCRF-CEM (Leukemia)
Experimental: (§1) The NCI screen consists of a panel of 60 different human tumor cell lines against which compounds are tested over a defined range of concentrations to determine the relative degree of growth inhibition or cytotoxicity against each cell line. The design and operation of the screen is such that for each compound tested, both the absolute and relative sensitivities of individual cell lines comprising the screen are sufficiently reproducible that a characteristic profile or “fingerprint” of cellular response is generated. Compounds which are active in the NCI screen show pronounced differential tumor growth-inhibitory and/or cytotoxic effects to the diverse cell lines comprising the 60 cell-line panel. The degree of differential response between the most and least sensitive lines typically may be relatively small (e.g., 2- to 10-fold), or occasionally as great as 3-4 orders of magnitude. […]
(§2) In the screening assay, each agent is tested over a broad concentration range against every cell line in the panel. […] Test compounds are evaluated at five 10-fold dilutions. […] Optical densities are measured on automated plate readers, followed by computerized data acquisition, processing, storage, and availability for display and analysis. […]

BT-549 = assay: NCI 60 cell-line screen, BT-549 (Breast)
Experimental: as §1, §2

M14 = assay: NCI 60 cell-line screen, M14 (Melanoma)
Experimental: as §1, §2

OVCAR-8 = assay: NCI 60 cell-line screen, OVCAR-8 (Ovary)
Experimental: as §1, §2

HOP-62 = assay: NCI 60 cell-line screen, HOP-62 (Lung)
Experimental: as §1, §2

NCI-H226 = assay: NCI 60 cell-line screen, NCI-H226 (Lung)
Experimental: as §1, §2

HCT-15 = assay: NCI 60 cell-line screen, HCT-15 (Colon)
Experimental: as §1, §2

SK-MEL-5 = assay: NCI 60 cell-line screen, SK-MEL-5 (Melanoma)
Experimental: as §1, §2

SF-295 = assay: NCI 60 cell-line screen, SF-295 (Brain)
Experimental: as §1, §2

TK-10 = assay: NCI 60 cell-line screen, TK-10 (Kidney)
Experimental: as §1, §2

HCT-116 = assay: NCI 60 cell-line screen, HCT-116 (Colon)
Experimental: as §1, §2

NCI-H23 = assay: NCI 60 cell-line screen, NCI-H23 (Lung)
Experimental: as §1, §2

SK-OV-3 = assay: NCI 60 cell-line screen, SK-OV-3 (Ovary)
Experimental: as §1, §2

UACC-257 = assay: NCI 60 cell-line screen, UACC-257 (Melanoma)
Experimental: as §1, §2

MCF-7 = assay: NCI 60 cell-line screen, MCF-7 (Breast)
Experimental: as §1, §2

SK-MEL-2 = assay: NCI 60 cell-line screen, SK-MEL-2 (Melanoma)
Experimental: as §1, §2

OVCAR-4 = assay: NCI 60 cell-line screen, OVCAR-4 (Ovary)
Experimental: as §1, §2

786-0 = assay: NCI 60 cell-line screen, 786-0 (Kidney)
Experimental: as §1, §2

LOX-IMVI = assay: NCI 60 cell-line screen, LOX-IMVI (Melanoma)
Experimental: as §1, §2

PC-3 = assay: NCI 60 cell-line screen, PC-3 (Prostate)
Experimental: as §1, §2

MALME-3M = assay: NCI 60 cell-line screen, MALME-3M (Melanoma)
Experimental: as §1, §2

T-47D = assay: NCI 60 cell-line screen, T-47D (Breast)
Experimental: as §1, §2

OVCAR-5 = assay: NCI 60 cell-line screen, OVCAR-5 (Ovary)
Experimental: as §1, §2

HOP-92 = assay: NCI 60 cell-line screen, HOP-92 (Lung)
Experimental: as §1, §2

A549/ATCC = assay: NCI 60 cell-line screen, A549/ATCC (Lung)
Experimental: as §1, §2

MOLT-4 = assay: NCI 60 cell-line screen, MOLT-4 (Leukemia)
Experimental: as §1, §2

UACC-62 = assay: NCI 60 cell-line screen, UACC-62 (Melanoma)
Experimental: as §1, §2

SNB-75 = assay: NCI 60 cell-line screen, SNB-75 (Brain)
Experimental: as §1, §2

MDA-MB-435 = assay: NCI 60 cell-line screen, MDA-MB-435 (Breast)
Experimental: as §1, §2

HL-60-TB = assay: NCI 60 cell-line screen, HL-60-TB (Leukemia)
Experimental: as §1, §2

NCI-H322M = assay: NCI 60 cell-line screen, NCI-H322M (Lung)
Experimental: as §1, §2

SF-268 = assay: NCI 60 cell-line screen, SF-268 (Brain)
Experimental: as §1, §2

salicylihalamide A
negative log10 GI50 (CCRF-CEM): 7.89 | negative log10 GI50 (BT-549): 9.30 | negative log10 GI50 (M14): 8.92 | negative log10 GI50 (OVCAR-8): 8.43 | negative log10 GI50 (HOP-62): 8.38 | negative log10 GI50 (NCI-H226): 8.80 | negative log10 GI50 (HCT-15): 8.44 | negative log10 GI50 (SK-MEL-5): 9.00 | negative log10 GI50 (SF-295): 8.96 | negative log10 GI50 (TK-10): 5.74 | negative log10 GI50 (HCT-116): 8.74 | negative log10 GI50 (NCI-H23): 6.55 | negative log10 GI50 (SK-OV-3): 5.54 | negative log10 GI50 (UACC-257): 8.47 | negative log10 GI50 (MCF-7): 7.12 | negative log10 GI50 (SK-MEL-2): 7.47 | negative log10 GI50 (OVCAR-4): 5.30 | negative log10 GI50 (786-0): 7.92 | negative log10 GI50 (LOX-IMVI): 9.11 | negative log10 GI50 (PC-3): 7.51 | negative log10 GI50 (MALME-3M): 7.62 | negative log10 GI50 (T-47D): 8.34 | negative log10 GI50 (OVCAR-5): 8.11 | negative log10 GI50 (HOP-92): 7.77 | negative log10 GI50 (A549/ATCC): 8.54 | negative log10 GI50 (MOLT-4): 7.96 | negative log10 GI50 (UACC-62): 8.38 | negative log10 GI50 (SNB-75): 6.21 | negative log10 GI50 (MDA-MB-435): 7.82 | negative log10 GI50 (HL-60-TB): 9.04 | negative log10 GI50 (NCI-H322M): 6.72 | negative log10 GI50 (SF-268): 7.55
